# Active and inactive are the calls of the source. The calls are words filed in the database; no cut-off is given here.
# How the values were obtained:
# [1] = Toxicity in BALB/c/Nu/Nu mouse xenografted with human MIA PaCa-2 cells assessed as change in body weight at 20 mg/kg, ip administered 5 times a week for 4 weeks; format: organism-based; details: in vivo, 672 h
# MIA PaCa-2 [2] = assay: Antitumor activity against human MIA PaCa-2 cells xenografted in BALB/c/Nu/Nu mouse assessed as reduction in number of blood vessels in skin at 60 mg/kg, ip administered 5 times a week for 4 weeks in presence of gemcitabine; format: functional, organism-based
# MIA PaCa-2 [3] = assay: Antitumor activity against human MIA PaCa-2 cells xenografted in BALB/c/Nu/Nu mouse assessed as tumor volume at 20 mg/kg, ip administered 5 times a week for 4 weeks and measured on day 32 (reference value: 1417 mm3); format: functional; details: time 32 day
# MIA PaCa-2 [4] = assay: Induction of endoplasmic reticulum (ER) stress in human MIA PaCa-2 cells in NDM medium assessed as change in TRB3 level at 5 uM measured after 6 hrs by Western blot analysis; format: functional, cell-based
# [5] = Selectivity index, ratio of IC50 for preferential cytotoxicity against human PANC-1 cells in DMEM to PC50 for preferential cytotoxicity against human PANC-1 cells in nutrient-deprived medium; format: functional
# MIA PaCa-2 [6] = assay: Preferential cytotoxicity against human MIA PaCa-2 cells in nutrient-deprived medium assessed as alteration in cell morphology by measuring membrane rupture at 0.5 to 1 uM measured after 24 hrs by acridine orange and ethidium bromide dual fluorescent staining based microscopic analysis; format: functional; details: dose 0.5-1 µM
# MIA PaCa-2 [7] = assay: Induction of endoplasmic reticulum (ER) stress in human MIA PaCa-2 cells assessed as change in TRB3 level at 5 uM measured after 6 hrs by Western blot analysis; format: functional, cell-based
# MIA PaCa-2 [8] = assay: Antitumor activity against human MIA PaCa-2 cells xenografted in BALB/c/Nu/Nu mouse assessed as reduction in final tumor weight at 20 mg/kg, ip administered 5 times a week for 4 weeks (reference value: […]); format: functional
# [9] = Modulation of PI3K/AKT/mTOR signalling pathway in human MIA PaCa-2 cells in DMEM medium assessed as downregulation of AKT expression at 1 to 5 uM incubated for 24 hrs in presence of gemcitabine by Western blot analysis; format: cell-based; details: filed as modulator, dose 1-5 µM
# MIA PaCa-2 [10] = assay: Preferential cytotoxicity against human MIA PaCa-2 cells in nutrient-deprived medium assessed as alteration in cell morphology by measuring cell rounding at 0.5 to 1 uM measured after 24 hrs by acridine orange and ethidium bromide dual fluorescent staining based microscopic analysis; format: functional; details: dose 0.5-1 µM
# MIA PaCa-2 [11] = assay: Antitumor activity against human MIA PaCa-2 cells xenografted in BALB/c/Nu/Nu mouse assessed as tumor volume at 60 mg/kg, ip administered 5 times a week for 4 weeks and measured on day 32 in presence of gemcitabine (reference value: 1417 mm3); format: functional; details: time 32 day
# [12] = Modulation of PI3K/AKT/mTOR signalling pathway in human MIA PaCa-2 cells in DMEM medium assessed as downregulation of AKT expression incubated for 24 hrs in presence of gemcitabine by Western blot analysis; format: cell-based; details: filed as modulator, dose 1-5 µM
# MIA PaCa-2 [13] = assay: Antimetastatic activity in human MIA PaCa-2 cells in DMEM media assessed as reduction in colony area at 20 uM incubated for 24 hrs by crystal violet staining-based assay; format: functional; parameters: scale not given: the % may be the effect or the level left
# Mus musculus [14] = assay: In-vivo modulation of PI3K/AKT/mTOR signalling pathway in human MIA PaCa-2 cells xenografted in BALB/c/Nu/Nu mouse assessed as downregulation of GRP78 level at 60 mg/kg, ip administered 5 times a week for 4 weeks in presence of gemcitabine by Western blot analysis; format: functional, organism-based
# MIA PaCa-2 [15] = assay: Antitumor activity against human MIA PaCa-2 cells xenografted in BALB/c/Nu/Nu mouse assessed as reduction in final tumor weight at 60 mg/kg, ip administered 5 times a week for 4 weeks in presence of gemcitabine (reference value: […]); format: functional
# MIA PaCa-2 [16] = assay: Induction of endoplasmic reticulum (ER) stress in human MIA PaCa-2 cells xenografted in BALB/c/Nu/Nu mouse assessed as downregulation of GRP78 expression in presence of gemcitabine by immunohistochemistry analysis; format: functional, cell-based
# MIA PaCa-2 [17] = assay: Antitumor activity against human MIA PaCa-2 cells xenografted in BALB/c/Nu/Nu mouse assessed as reduction in number of blood vessels in skin at 20 mg/kg, ip administered 5 times a week for 4 weeks; format: functional, organism-based
# MIA PaCa-2 [18] = assay: Induction of endoplasmic reticulum (ER) stress in human MIA PaCa-2 cells assessed as reduction in GRP78 expression at 5 uM measured after 6 hrs by Western blot analysis; format: functional, cell-based
# MIA PaCa-2 [19] = assay: Preferential cytotoxicity against human MIA PaCa-2 cells in nutrient-deprived medium measured after 24 hrs by WST-8 cell counting analysis; format: functional
# MIA PaCa-2 [20] = assay: Antitumor activity against human MIA PaCa-2 cells xenografted in BALB/c/Nu/Nu mouse assessed as reduction in tumor volume at 20 mg/kg, ip administered 5 times a week for 4 weeks and measured on day 16; format: functional, organism-based; details: time 16.0 day
# MIA PaCa-2 [21] = assay: Antimetastatic activity in human MIA PaCa-2 cells in DMEM media assessed as reduction in colony area at 10 uM incubated for 24 hrs by crystal violet staining-based assay; format: functional; parameters: scale not given: the % may be the effect or the level left
# MIA PaCa-2 [22] = assay: Antimetastatic activity in human MIA PaCa-2 cells in DMEM media assessed as inhibition of cell migration at 10 uM incubated for 18 hrs relative to control (reference value: 64%); format: functional
# [23] = Selectivity index, ratio of IC50 for preferential cytotoxicity against human MIA PaCa-2 cells in DMEM to PC50 for preferential cytotoxicity against human MIA PaCa-2 cells in nutrient-deprived medium; format: functional
# Mus musculus [24] = assay: In-vivo modulation of PI3K/AKT/mTOR signalling pathway in human MIA PaCa-2 cells xenografted in BALB/c/Nu/Nu mouse assessed as downregulation of mTOR phosphorylation at 60 mg/kg, ip administered 5 times a week for 4 weeks in presence of gemcitabine by Western blot analysis; format: functional, organism-based
# Mus musculus [25] = assay: In-vivo modulation of PI3K/AKT/mTOR signalling pathway in human MIA PaCa-2 cells xenografted in BALB/c/Nu/Nu mouse assessed as downregulation of Akt phosphorylation at 60 mg/kg, ip administered 5 times a week for 4 weeks in presence of gemcitabine by Western blot analysis; format: functional, organism-based
# MIA PaCa-2 [26] = assay: Preferential cytotoxicity against human MIA PaCa-2 cells in nutrient-deprived medium assessed as alteration in cell morphology by fluorescence intensity measured after 24 hrs by acridine orange and ethidium bromide dual fluorescent staining based microscopic analysis; format: functional; details: dose 0.5-1 µM
# MIA PaCa-2 [27] = assay: Antimetastatic activity in human MIA PaCa-2 cells in DMEM media assessed as inhibition of cell migration at 10 uM incubated for 36 hrs relative to control (reference value: 30%); format: functional
# Mus musculus [28] = assay: In-vivo modulation of PI3K/AKT/mTOR signalling pathway in human MIA PaCa-2 cells xenografted in BALB/c/Nu/Nu mouse assessed as downregulation of TRB3 level at 60 mg/kg, ip administered 5 times a week for 4 weeks in presence of gemcitabine by Western blot analysis; format: functional, organism-based
# [29] = Modulation of PI3K/AKT/mTOR signalling pathway in human MIA PaCa-2 cells in DMEM medium assessed as downregulation of GRP78 expression incubated for 24 hrs in presence of gemcitabine by Western blot analysis; format: cell-based; details: filed as modulator, dose 1-5 µM
smiles,measurement,setting,value
CC(C)=CCCC1=CC[C@H](C(=O)c2c(O)cccc2O)[C@@H](c2cccc(F)c2F)C1 (relative stereo),Activity,[1],Non-Toxic
same,Activity,MIA PaCa-2 [2],Active
same,Activity,MIA PaCa-2 [3],879 mm3
same,Activity,MIA PaCa-2 [4],Active
same,Selectivity Index,[5],40.8
same,Activity,MIA PaCa-2 [6],Active
same,Activity,MIA PaCa-2 [7],Active
same,Activity,MIA PaCa-2 [8],321 mg
same,Activity,[9],Active
same,Activity,MIA PaCa-2 [10],Active
same,Activity,MIA PaCa-2 [11],528 mm3
same,Activity,[12],Dose-Dependent Effect
same,Activity,MIA PaCa-2 [13],98%
same,Activity,Mus musculus [14],Active
same,Activity,MIA PaCa-2 [15],139 mg
same,Activity,MIA PaCa-2 [16],Active
same,Activity,MIA PaCa-2 [17],Active
same,Activity,MIA PaCa-2 [18],Active
same,PC50,MIA PaCa-2 [19],0.34 µM
same,Activity,MIA PaCa-2 [20],Active
same,Activity,MIA PaCa-2 [21],91%
same,inhibition at 10 µM,MIA PaCa-2 [22],92%
same,Selectivity Index,[23],176
same,Activity,Mus musculus [24],Active
same,Activity,Mus musculus [25],Active
same,Activity,MIA PaCa-2 [26],Dose-Dependent Effect
same,inhibition at 10 µM,MIA PaCa-2 [27],77%
same,Activity,Mus musculus [28],Active
same,Activity,[29],Dose-Dependent Effect

# From ChEMBL document CHEMBL5576134, “Targeting Pancreatic Cancer with Novel Nicolaioidesin C Derivatives: Molecular Mechanism, In Vitro, and In Vivo Evaluations” (J Med Chem, 2024)
